Test results from publication PMC10458471, “Electrophysiological Assessment of Newly Synthesized 2,3-Benzodiazepine Derivatives for Inhibiting the AMPA Receptor Channel” (Molecules, 2023).
Read-outs that look alike come from different tables or passages of the source.

Columns and labels:
GluA2 = biological target: T1, GluA2 (Rattus norvegicus, UniProt P19491); test: Whole-cell patch-clamp recording of homomeric GluA2 AMPAR expressed in HEK293T cells; assay type: cell-based; details: for Amplitude with compound: 10 mM glutamate + 16 µM compound, mean±SEM; for A/AI (current amplitude ratio without/with compound): 10 mM glutamate; for t deact (weighted deactivation time constant): 1 ms 10 mM glutamate + 16 µM compound; for t des (weighted desensitization time constant): 500 ms 10 mM glutamate + 16 µM compound
T1 construct: expressed in transfected cells; host or cells: HEK293T
Procedure: (§1) For the DNA preparation, the QIAGEN Plasmid Mini Kit was used to prepare up to 20 µg of high-copy plasmid DNA [30]. All AMPAR subunits utilized in this study included the flip isoform received from S. F. Heinemann (Salk Institute, La Jolla, CA, USA) and sub-cloned in pRK for expression in Human Embryonic Kidney Cells 293 (HEK293T). The human embryonic kidney (HEK293T) cells were obtained from Sigma, Taufkirchen, Germany, and we only used the HEK293T cell line due to their ease of growth and transfection and wide utilization in cell culture. For the transfection, we used the constructs GluA1, GluA2, GluA2/3, and GluA1/2, along with the GFP-expressing construct, as described in our previous work. The transfection reagents utilized were jetPRIME (Polyplus: New York, NY, USA) or Lipofectamine 2000 (Invitrogen; San Diego, CA, USA). The highly fluorescent cells were identified and selected for recording. The selected cells were seeded in Dulbecco Modified Eagle Medium (DMEM) (Sigma, Roedermark, Germany) containing 10% FBS, 0.1 mg/mL streptomycin, and 1 mM sodium pyruvate (Biological Industries; Beit-Haemek, Israel). The cells were incubated at 37 °C with 5% CO2 added to the medium and subcultured twice a week until they reached passage #20. Following a day and a half, the cells were replated on coverslips covered with Laminin (1 mg/mL; Sigma, Roedermark, Germany) for electrophysiological recordings. Our previous work has detailed the DNA preparation, cDNA transient transfection, and cell culture of HEK293T [30, 31, 32, 33].
(§2) After that, a patch was placed in front of a rapid perfusion system comprised of a theta tube flow pipe mounted on a piezoelectric translator that was used to wash the cell continuously from one barrel while the other supplied the compound of interest to the cell. Recordings were conducted 36–48 h after transfection at 22 °C, with a membrane potential of −60 mV. Currents were amplified using an integrated patch amplifier (IPA, Sutter Instruments, Novato, CA, USA), filtered at 2 kHz, and digitized at 10 kHz using SutterPatch Software v. 1.1.1 [46]. […] The extracellular medium contained (in mM): 150 NaCl, 2.8 KCl, 0.5 MgCl2, 2 CaCl2, and 10 HEPES, pH 7.4 adjusted with NaOH. The holding potential was typically −60 mV. The sample size was determined to be eight viable cells to calculate the mean inhibition of the derivative of interest. The solution exchange time (10–90% to peak) was estimated at […] using open-tip control at the end of a recording. Inhibition was calculated by comparing the current observed when the cell was supplied with glutamate alone and when the same cell was supplied with both glutamate and the 2,3-BDZ compounds. The initial tube containing only glutamate was reintroduced to the cell to ensure cellular safety and authenticate the antagonist’s findings. This step ensured that the glutamate-induced current observed before the administration of the antagonist was nearly indistinguishable from the current observed after administration.
(§3) The experiment served two purposes: first, determining the whole-cell current amplitude ratio in the absence and presence of the compounds (A/AI) to derive a constant inhibitory value independent of the rate measurement. Second, as an independent control method, a fast exchange solution flow methodology was employed using piezoelectric actuators, providing the fastest exchange solution with open-tip current rise times in the 100–300 μs range to assess the amplitude of the whole-cell current. Detailed data analysis of this process is provided in the supporting information (Tables S1–S4).
(§4) The data acquired were analyzed using Igor Pro7 (Wave Metrics, Inc., Portland, OR, USA). Receptor desensitization (τw des) and deactivation rates were estimated by fitting the current decay starting from 95% of the peak to the baseline current using a double exponential formulation. […]

GluA2/3 = biological target: T2, GluA2/3 (Rattus norvegicus, UniProt P19491+P19492); test: Whole-cell patch-clamp recording of heteromeric GluA2/3 AMPAR expressed in HEK293T cells; assay type: cell-based; details: for Amplitude with compound: 10 mM glutamate + 16 µM compound, mean±SEM; for Amplitude with compound / A/AI (current amplitude ratio without/with compound) / t deact (weighted deactivation time constant) / t des (weighted desensitization time constant) / Amplitude, applying glutamate alone after compound: n=8; for A/AI (current amplitude ratio without/with compound): 10 mM glutamate; for t deact (weighted deactivation time constant): 1 ms 10 mM glutamate + 16 µM compound; for t des (weighted desensitization time constant): 500 ms 10 mM glutamate + 16 µM compound; for Amplitude, applying glutamate alone after compound: washout/recovery
T2 construct: expressed in transfected cells; host or cells: HEK293T
Procedure: as §1, §2, §3, §4

GluA1 = biological target: T3, GluA1 (Rattus norvegicus, UniProt P19490); test: Whole-cell patch-clamp recording of homomeric GluA1 AMPAR expressed in HEK293T cells; assay type: cell-based; details: for Amplitude with compound: 10 mM glutamate + 16 µM compound, mean±SEM; for Amplitude with compound / A/AI (current amplitude ratio without/with compound) / t deact (weighted deactivation time constant) / t des (weighted desensitization time constant) / Amplitude, applying glutamate alone after compound: n=8; for A/AI (current amplitude ratio without/with compound): 10 mM glutamate; for t deact (weighted deactivation time constant): 1 ms 10 mM glutamate + 16 µM compound; for t des (weighted desensitization time constant): 500 ms 10 mM glutamate + 16 µM compound; for Amplitude, applying glutamate alone after compound: washout/recovery
T3 construct: expressed in transfected cells; host or cells: HEK293T
Procedure: as §1, §2, §3, §4

[1] = Solubility observation during synthesis/characterisation; assay type: physicochemical; details: qualitative, NMR in DMSO-d6 could not be run
Procedure: The synthesis of target compounds is carried out according to the sequence of reactions detailed in Scheme 1. SnCl4-catalyzed Friedel-Craft acylation of ethyl 3,4-methylenedioxy phenylacetate 1 with either 2-fluoro-4-nitrobezoylchloride 2a or 3-methoxy-4-nitrobenzoyl chloride 2b in dry CH2Cl2 yields the required ketoester intermediates 3a and 3b in 40% and 48% yields, respectively. […] Acetic acid promoted a cascade reaction (imine formation followed by cyclization) of ethyl 4,5-(methylenedioxy)-2-[…] with hydrazine hydrate in ethanol afforded 2,3-BZD-4 in a 33% yield. High yield and purity of 2,3-BZD-1 were achieved via Pd-catalyzed hydrogenation of the nitro group in 2,3-BZD-4 in methanol. The generated compounds have physical and spectral (1H-NMR) data consistent with their proposed structures.
5% Pd/C (50 mg) was added to a solution containing 1-(2-floro-4-nitrophenyl)-7,8-(methylenedioxy)-3,5-dihydro-4H-2,3-benzodiazepin-4-one (2,3-BDZ-3) (64.80 mg, 0.19 mmol) in methanol (5 mL) and formic acid (2 mL). After 48 h of stirring at ambient temperature in a hydrogen atmosphere, the Pd/C was filtered out, and the solvent was removed under pressure. The resultant residue was washed with methanol and then with diethyl ether. […]

AMPA receptor subunits = test: Whole-cell patch-clamp recording, statements over all tested AMPAR subunits (GluA1, GluA1/2, GluA2, GluA2/3) in HEK293T cells; assay type: cell-based; details: 16 µM compound; for Effect on deactivation rate of the AMPAR subunits examined: 1 ms glutamate
Procedure: as §1, §2, §3, §4

GluA1/2 = biological target: T4, GluA1/2 (Rattus norvegicus, UniProt P19490+P19491); test: Whole-cell patch-clamp recording of heteromeric GluA1/2 AMPAR expressed in HEK293T cells; assay type: cell-based; details: for Amplitude with compound: 10 mM glutamate + 16 µM compound, mean±SEM; for Amplitude with compound / A/AI (current amplitude ratio without/with compound) / t deact (weighted deactivation time constant) / t des (weighted desensitization time constant) / Amplitude, applying glutamate alone after compound: n=8; for A/AI (current amplitude ratio without/with compound): 10 mM glutamate; for t deact (weighted deactivation time constant): 1 ms 10 mM glutamate + 16 µM compound; for t des (weighted desensitization time constant): 500 ms 10 mM glutamate + 16 µM compound; for Amplitude, applying glutamate alone after compound: washout/recovery
T4 construct: expressed in transfected cells; host or cells: HEK293T
Procedure: as §1, §2, §3, §4

[2] = 16 µM compound, 500 ms glutamate
[3] = log of IC50, read-out: Log IC50 (converted)
[4] = normalized peak current, -60 mV, pH 7.4, 22 °C, read-out: IC50

T3 sequence (P19490 19-907 isoform P19490-2 limits assumed): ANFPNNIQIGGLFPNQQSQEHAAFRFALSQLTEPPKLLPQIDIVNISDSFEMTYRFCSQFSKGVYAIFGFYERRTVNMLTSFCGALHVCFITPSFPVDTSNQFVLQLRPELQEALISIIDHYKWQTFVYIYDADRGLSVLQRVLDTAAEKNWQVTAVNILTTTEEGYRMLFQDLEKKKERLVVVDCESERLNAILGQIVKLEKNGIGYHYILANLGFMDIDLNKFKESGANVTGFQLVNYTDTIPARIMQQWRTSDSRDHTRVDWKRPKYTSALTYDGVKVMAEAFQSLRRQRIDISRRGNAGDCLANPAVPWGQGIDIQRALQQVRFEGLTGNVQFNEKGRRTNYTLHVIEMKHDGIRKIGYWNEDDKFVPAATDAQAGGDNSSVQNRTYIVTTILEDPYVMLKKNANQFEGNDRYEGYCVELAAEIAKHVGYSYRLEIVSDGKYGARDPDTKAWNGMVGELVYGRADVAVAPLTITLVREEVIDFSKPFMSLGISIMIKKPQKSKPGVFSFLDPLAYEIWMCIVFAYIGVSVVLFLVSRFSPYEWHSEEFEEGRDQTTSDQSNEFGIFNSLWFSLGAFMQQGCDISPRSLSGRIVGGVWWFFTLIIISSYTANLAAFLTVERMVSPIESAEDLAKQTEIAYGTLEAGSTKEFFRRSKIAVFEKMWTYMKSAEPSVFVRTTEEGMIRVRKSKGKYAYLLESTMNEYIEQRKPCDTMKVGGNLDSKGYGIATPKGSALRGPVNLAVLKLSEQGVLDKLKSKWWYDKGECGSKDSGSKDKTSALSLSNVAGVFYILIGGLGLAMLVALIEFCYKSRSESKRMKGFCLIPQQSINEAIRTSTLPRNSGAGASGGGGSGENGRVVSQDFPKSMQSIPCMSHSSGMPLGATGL
T4 sequence (P19490 19-907 isoform P19490-2 limits assumed): as above
T4 sequence (P19491 22-883 isoform P19491-2 limits assumed): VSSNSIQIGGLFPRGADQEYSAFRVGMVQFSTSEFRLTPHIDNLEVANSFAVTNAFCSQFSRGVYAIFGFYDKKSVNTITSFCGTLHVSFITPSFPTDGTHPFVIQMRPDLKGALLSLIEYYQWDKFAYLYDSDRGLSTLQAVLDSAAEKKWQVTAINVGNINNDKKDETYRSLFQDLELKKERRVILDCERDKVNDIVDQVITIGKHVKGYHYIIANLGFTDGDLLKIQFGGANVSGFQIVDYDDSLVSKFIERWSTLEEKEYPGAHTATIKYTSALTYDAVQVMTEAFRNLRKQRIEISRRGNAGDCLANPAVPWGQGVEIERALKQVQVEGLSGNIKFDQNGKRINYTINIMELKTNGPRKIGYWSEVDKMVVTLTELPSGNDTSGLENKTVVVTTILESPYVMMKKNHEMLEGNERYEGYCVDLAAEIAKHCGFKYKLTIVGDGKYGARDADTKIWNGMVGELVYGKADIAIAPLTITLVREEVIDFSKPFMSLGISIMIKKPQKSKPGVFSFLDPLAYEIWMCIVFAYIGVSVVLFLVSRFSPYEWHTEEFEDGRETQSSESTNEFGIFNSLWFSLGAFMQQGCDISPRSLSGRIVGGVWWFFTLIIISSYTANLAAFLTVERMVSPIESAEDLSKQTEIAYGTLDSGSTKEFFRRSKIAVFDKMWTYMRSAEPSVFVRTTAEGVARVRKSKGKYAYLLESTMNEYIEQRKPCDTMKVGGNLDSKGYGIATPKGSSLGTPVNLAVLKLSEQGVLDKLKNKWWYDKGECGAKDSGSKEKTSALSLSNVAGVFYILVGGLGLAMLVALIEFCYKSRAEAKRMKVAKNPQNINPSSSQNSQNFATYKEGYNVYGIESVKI
T2 sequence (P19491 22-883 isoform P19491-2 limits assumed): as above
T2 sequence (P19492 23-888 isoform P19492-2 limits assumed): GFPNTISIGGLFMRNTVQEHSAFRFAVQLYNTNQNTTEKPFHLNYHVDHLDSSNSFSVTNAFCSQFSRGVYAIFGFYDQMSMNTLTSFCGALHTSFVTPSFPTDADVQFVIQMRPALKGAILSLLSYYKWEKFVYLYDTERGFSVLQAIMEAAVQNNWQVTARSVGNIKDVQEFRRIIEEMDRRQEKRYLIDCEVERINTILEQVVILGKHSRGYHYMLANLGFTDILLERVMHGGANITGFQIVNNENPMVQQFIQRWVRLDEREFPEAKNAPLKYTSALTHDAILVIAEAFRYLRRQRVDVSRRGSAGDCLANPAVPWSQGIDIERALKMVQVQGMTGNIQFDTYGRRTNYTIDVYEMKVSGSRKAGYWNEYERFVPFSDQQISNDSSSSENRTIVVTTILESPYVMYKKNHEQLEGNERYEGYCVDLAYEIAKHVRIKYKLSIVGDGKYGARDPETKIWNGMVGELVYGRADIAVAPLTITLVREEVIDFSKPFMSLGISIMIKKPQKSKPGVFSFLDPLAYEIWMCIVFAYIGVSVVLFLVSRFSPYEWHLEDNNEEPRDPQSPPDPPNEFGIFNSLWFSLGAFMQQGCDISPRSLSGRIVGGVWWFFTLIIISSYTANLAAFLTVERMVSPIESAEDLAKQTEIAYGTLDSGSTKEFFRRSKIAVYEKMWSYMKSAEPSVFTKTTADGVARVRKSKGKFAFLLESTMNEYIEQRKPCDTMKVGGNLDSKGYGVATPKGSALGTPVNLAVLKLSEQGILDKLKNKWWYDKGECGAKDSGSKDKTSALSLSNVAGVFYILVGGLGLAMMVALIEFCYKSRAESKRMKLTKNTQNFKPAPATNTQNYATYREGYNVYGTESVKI
T1 sequence (P19491 22-883 isoform P19491-2 limits assumed): as the sequence (P19491 22-883 isoform P19491-2 limits assumed) above

Amplitude with compound (GluA2; -60 mV, pH 7.4, 22 °C, n=8) [pA] | A/AI (current amplitude ratio without/with compound) (GluA2; 16 µM compound, n=8) | t deact (weighted deactivation time constant) (GluA2; n=8) [ms] | IC50 (GluA2; [3]) [µM] | IC50 (GluA2; [4]) [µM] | Amplitude with compound (GluA2/3; -60 mV, pH 7.4, 22 °C) [pA] | A/AI (current amplitude ratio without/with compound) (GluA2/3; 16 µM compound) | t deact (weighted deactivation time constant) (GluA2/3) [ms] | IC50 (GluA2/3; [3]) [µM] | IC50 (GluA2/3; [4]) [µM] | Amplitude, applying glutamate alone after compound (GluA2/3) [pA] | Amplitude with compound (GluA1; -60 mV, pH 7.4, 22 °C) [pA] | A/AI (current amplitude ratio without/with compound) (GluA1; 16 µM compound) | t deact (weighted deactivation time constant) (GluA1) [ms] | IC50 (GluA1; [3]) [µM] | IC50 (GluA1; [4]) [µM] | Amplitude, applying glutamate alone after compound (GluA1) [pA] | Structure (SMILES) | t des (weighted desensitization time constant) (GluA2; n=8) [ms] | t des (weighted desensitization time constant) (GluA2/3) [ms] | t des (weighted desensitization time constant) (GluA1) [ms] | other results
108±9.0 | 12.31±1.0 | 8.7 ± 0.6 | 3.02 | 3.02 | 49±4 | 12.09±1.0 | 8.1 ± 0.7 | 3.09 | 3.09 | 589±33 | 85±7.0 | 11.08±1.0 | 6.3 ± 0.4 | 3.24 | 3.26 | 935±39 | Nc1ccc(C2=NNC(=O)Cc3cc4c(cc32)OCO4)c(F)c1 [2,3-BDZ-1, 1-(4-Amino-2-fluorophenyl)-7,8-(methylenedioxy)-3,5-dihydro-4H-2,3-benzodiazepin-4-one] | 0.6 ± 0.05 | 0.8 ± 0.08 | 1.1 ± 0.1 | Reduction of desensitization rate (GluA2; [2]): 4–5 fold; Amplitude, applying glutamate alone after compound (GluA2; washout/recovery, glutamate alone after compound, n=8): 1322±33 pA; Reduction of desensitization rate (GluA2/3; [2]): 3–4 fold; Reduction of desensitization rate (GluA1; [2]): ~2 fold; Solubility (observation) [1]: low solubility; Solubility (observation) ([1]; listed as 2,3-BZD-1): highly insoluble; Reduction in AMPAR subunit currents (AMPA receptor subunits): 11–12 fold; Effect on deactivation rate of the AMPAR subunits examined (AMPA receptor subunits): almost triples; Reduction of desensitization rate (GluA1/2; [2]): ~2 fold; Amplitude with compound (GluA1/2; -60 mV, pH 7.4, 22 °C): 51±7.0 pA; A/AI (current amplitude ratio without/with compound) (GluA1/2; 16 µM compound): 11.21±1.0; t deact (weighted deactivation time constant) (GluA1/2): 6.7 ± 0.6 ms; t des (weighted desensitization time constant) (GluA1/2): 2.7 ± 0.2 ms; IC50 (GluA1/2; [3]): 3.02 µM; IC50 (GluA1/2; [4]): 3.05 µM; Amplitude, applying glutamate alone after compound (GluA1/2): 575±35 pA
326±17 | 4.16±0.2 | 2.8 ± 0.1 | 5.75 | 5.74 | 130±12 | 4.08±0.3 | 2.9 ± 0.2 | 5.75 | 5.76 | 525±22 | 237±12 | 3.94±0.2 | 2.4 ± 0.1 | 5.75 | 5.8 | 936±46 | O=C1Cc2cc3c(cc2C(c2ccc([N+](=O)[O-])cc2F)=NN1)OCO3 [2,3-BDZ-3] | 2.3 ± 0.1 | 2.5 ± 0.2 | 2.1 ± 0.1 | Effect on desensitization rate (AMPA receptor subunits): no change; Reduction in AMPAR subunit currents (AMPA receptor subunits): 4 fold; Effect on deactivation rate of the AMPAR subunits examined (AMPA receptor subunits): no change; melting point: 182 to 184 °C; Amplitude with compound (GluA1/2; -60 mV, pH 7.4, 22 °C): 144±11 pA; A/AI (current amplitude ratio without/with compound) (GluA1/2; 16 µM compound): 3.98±0.2; t deact (weighted deactivation time constant) (GluA1/2): 2.8 ± 0.2 ms; t des (weighted desensitization time constant) (GluA1/2): 4.9 ± 0.3 ms; IC50 (GluA1/2; [3]): 5.75 µM; IC50 (GluA1/2; [4]): 5.79 µM; Amplitude, applying glutamate alone after compound (GluA1/2): 569±43 pA
